Reference: US10501518B2 (priority 2013, dated 2019)
Like-named read-outs stand apart in the source and are kept apart here. One block for each molecule: values may come before it. Starred links: 1 amine or outer side, 2 acyl side, 3 side chain; linkers in the order of their positions; H or OH if unused. Non-standard residues stand in square brackets, D forms with d. Residues, ends and D or L forms follow the SMILES beside them. *: point of attachment. NH(1S,2S-2-CONH2-cPent) = NC(=O)[C@H]1CCC[C@@H]1N*; X12 = O=C([C@H]1CCC[C@@H]1N[*:1])[*:2]; X13 = O=C([C@H]1CNC[C@@H]1N[*:1])[*:2]; ACPC(1S,2S) = N[C@H]1CCC[C@@H]1C(=O)*; hArg = N=C(N)NCCCC[C@H](N)C(=O)O; β3hE = N[C@@H](CCC(=O)O)CC(=O)O; β3hD = NC(CC(=O)O)CC(=O)O; β3hS = N[C@@H](CO)CC(=O)O; Aib = CC(C)(N)C(=O)O

Biological target: T1, PTHR (Homo sapiens, UniProt Q03431)
T1 construct: expressed in transfected cells
T1 sequence (Q03431 27-593): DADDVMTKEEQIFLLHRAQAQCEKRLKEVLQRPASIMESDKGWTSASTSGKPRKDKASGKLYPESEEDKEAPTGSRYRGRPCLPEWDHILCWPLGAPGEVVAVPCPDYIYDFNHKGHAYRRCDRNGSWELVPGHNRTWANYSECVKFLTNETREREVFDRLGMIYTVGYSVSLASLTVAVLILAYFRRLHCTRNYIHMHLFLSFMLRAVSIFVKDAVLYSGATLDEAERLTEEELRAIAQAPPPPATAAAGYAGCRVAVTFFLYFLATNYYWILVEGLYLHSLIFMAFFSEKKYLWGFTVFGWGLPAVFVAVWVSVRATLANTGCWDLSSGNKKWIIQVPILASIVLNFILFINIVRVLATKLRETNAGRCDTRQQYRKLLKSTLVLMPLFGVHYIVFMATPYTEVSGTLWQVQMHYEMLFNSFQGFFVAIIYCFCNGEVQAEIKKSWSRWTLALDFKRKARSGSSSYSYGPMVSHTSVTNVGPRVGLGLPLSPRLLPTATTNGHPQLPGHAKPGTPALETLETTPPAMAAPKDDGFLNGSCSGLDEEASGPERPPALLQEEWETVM
Experiment: cAMP induction potency, N-terminal modifications and cyclic constraints (Tables 9, 10, 13)
Format: cell-based
Description: For cAMP dose-response assays, monolayers of confluent HEK 293 cells were pre-incubated with buffer containing d-luciferin (0.5 mM) in 96 well plates at room temperature until a stable baseline level of luminescence was established (30 min). Varying concentrations of agonist were then added, and the time course of luminescence response was recorded using a Perkin Elmer plate reader following α/β-peptide addition.

EC50 (Table 13, non M-PTH analogs, read-out: cAMP, EC50 nM ± SEM): 0.79 nM
Molecule: CSCC[C@H](NC(=O)[C@H]1CCC[C@@H]1NC(=O)[C@H](CCC(N)=O)NC(=O)[C@H]1CCC[C@@H]1NC(=O)[C@H](CCC(=O)O)NC(=O)[C@H](CO)NC(=O)[C@@H](NC(=O)C[C@@H](N)CO)C(C)C)C(=O)N[C@@H](Cc1c[nH]cn1)C(=O)N[C@@H](CC(N)=O)C(=O)N[C@@H](CC(C)C)C(=O)NCC(=O)N[C@@H](CCCCN)C(=O)N[C@H]1CCC[C@@H]1C(=O)N[C@@H](CC(C)C)C(=O)N[C@@H](CC(N)=O)C(=O)N[C@@H](CO)C(=O)N[C@H]1CCC[C@@H]1C(=O)N[C@@H](CCC(=O)O)C(=O)N[C@@H](CCCNC(=N)N)C(=O)N[C@H](C(=O)N[C@H]1CNC[C@@H]1C(=O)N[C@@H](Cc1c[nH]c2ccccc12)C(=O)N[C@@H](CC(C)C)C(=O)N[C@@H](CCCNC(=N)N)C(=O)N[C@H]1CNC[C@@H]1C(=O)N[C@@H](CCCCN)C(=O)N[C@@H](CC(C)C)C(=O)N[C@@H](CCC(N)=O)C(=O)N[C@H]1CCC[C@@H]1C(=O)N[C@H](C(=O)N[C@@H](Cc1c[nH]cn1)C(=O)N[C@@H](CC(N)=O)C(=O)N[C@H]1CCC[C@@H]1C(N)=O)C(C)C)C(C)C [FcycD6_β^3Ser1, ACPC(5, 7, SVSEXQXMHNLGKXLNSXERVZWLRZKLQXVHNX-NH2] (H-[β3hS]VSE[X12]Q[X12]MHNLGK[X12]LNS[X12]ERV[X13]WLR[X13]KLQ[X12]VHN-{NH(1S,2S-2-CONH2-cPent)}; N-terminus assumed)

Fold PTH (Table 10): 21.8
Molecule: CC[C@H](C)[C@H](NC(=O)[C@H](CCC(=O)O)NC(=O)C(C)(C)NC(=O)[C@@H](NC(=O)[C@H]1CCC[C@@H]1N)C(C)C)C(=O)N[C@@H](CCC(N)=O)C(=O)N[C@H]1CCC[C@@H]1C(=O)N[C@@H](CCSC)C(=O)N[C@@H](Cc1c[nH]cn1)C(=O)N[C@@H](CCC(N)=O)C(=O)N[C@@H](CCCCNC(=N)N)C(=O)N[C@@H](C)C(=O)N[C@@H](CCCCN)C(=O)N[C@H]1CCC[C@@H]1C(=O)N[C@@H](CC(C)C)C(=O)N[C@@H](CC(N)=O)C(=O)N[C@@H](CO)C(=O)N[C@H]1CCC[C@@H]1C(=O)N[C@@H](CCCNC(=N)N)C(=O)N[C@@H](CCCNC(=N)N)C(=O)N[C@H](C(=O)N[C@H]1CNC[C@@H]1C(=O)N[C@@H](Cc1c[nH]c2ccccc12)C(=O)N[C@@H](CC(C)C)C(=O)N[C@@H](CCCNC(=N)N)C(=O)N[C@H]1CNC[C@@H]1C(=O)N[C@@H](CCCCN)C(=O)N[C@@H](CC(C)C)C(=O)N[C@@H](CCC(N)=O)C(=O)N[C@H]1CCC[C@@H]1C(=O)N[C@H](C(=O)N[C@@H](Cc1c[nH]cn1)C(=O)N[C@@H](CC(N)=O)C(=O)N[C@H]1CCC[C@@H]1C(N)=O)C(C)C)C(C)C [M-FcycD6_ACPC(1,7), XVUEIQXMHQ^hRAKXLNSXRRVZWLRZKLQXVHNX-NH2] ({ACPC(1S,2S)}-V[Aib]EIQ[X12]MHQ[hArg]AK[X12]LNS[X12]RRV[X13]WLR[X13]KLQ[X12]VHN-{NH(1S,2S-2-CONH2-cPent)}; N-terminus assumed)

Fold PTH (Table 9): 1.3
EC50 (Table 9, read-out: EC50, nM (cAMP induction potency)): 0.1 ± 0.01 nM
Molecule: CC[C@H](C)[C@H](NC(=O)[C@H](CCC(=O)O)NC(=O)[C@H](CO)NC(=O)[C@@H](NC(=O)[C@@H](N)CO)C(C)C)C(=O)N[C@@H](CCC(N)=O)C(=O)N[C@@H](CC(C)C)C(=O)N[C@@H](CCSC)C(=O)N[C@@H](Cc1c[nH]cn1)C(=O)N[C@@H](CC(N)=O)C(=O)N[C@@H](CC(C)C)C(=O)NCC(=O)N[C@@H](CCCCN)C(=O)N[C@H]1CCC[C@@H]1C(=O)N[C@@H](CC(C)C)C(=O)N[C@@H](CC(N)=O)C(=O)N[C@@H](CO)C(=O)N[C@H]1CCC[C@@H]1C(=O)N[C@@H](CCC(=O)O)C(=O)N[C@@H](CCCNC(=N)N)C(=O)N[C@H](C(=O)N[C@@H](CCC(=O)O)CC(=O)N[C@@H](Cc1c[nH]c2ccccc12)C(=O)N[C@@H](CC(C)C)C(=O)N[C@@H](CCCNC(=N)N)C(=O)N[C@H]1CNC[C@@H]1C(=O)N[C@@H](CCCCN)C(=O)N[C@@H](CC(C)C)C(=O)N[C@@H](CCC(N)=O)C(=O)N[C@@H](CC(=O)O)CC(=O)N[C@H](C(=O)N[C@@H](Cc1c[nH]cn1)C(=O)N[C@@H](CC(N)=O)C(=O)N[C@H]1CCC[C@@H]1C(N)=O)C(C)C)C(C)C [cycD6, SVSEIQLMHNLGKXLNSXERVEWLRZKLQDVHNX-NH2] (H-SVSEIQLMHNLGK[X12]LNS[X12]ERV[β3hE]WLR[X13]KLQ[β3hD]VHN-{NH(1S,2S-2-CONH2-cPent)}; N-terminus assumed)

Fold PTH (Table 10): 4.0
Molecule: AVAEIQXMHQ^hRAKXLNSXRRVEWLRZKLQDVHNX-NH2 [M-cycD6]
